Laboratory results as given in the supplement of paper PMC10307832.

The cell lines below were run with NC(=O)c1ccc(N(C(N)=O)c2c(F)cccc2F)nc1-c1ccc(F)cc1F [VX-702] (assay: relative viability (nuclei count vs DMSO), 5 days (fraction); higher = more cells survive). Conditions: 2 µM.
How it was run: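 Five library-drug doses spaced by √10 were pinned onto vehicle-anchored 1536-well plates of lung cancer cell lines that had been kept overnight at 37 °C. Cells went 5 days without medium change, then were fixed, permeabilised and Hoechst-stained together, imaged at 4× and counted by MetaXpress. Viability is the ratio of treated-well to vehicle-well nuclei, taken as a median over plates. Plates required control CV below 25% and at least one doubling.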

| Cell Line | relative viability |
| --- | --- |
| NCI-H2405 | 1.12 |

Each cell line was assayed with CC(C)(C)c1nc(-c2cccc(NS(=O)(=O)c3c(F)cccc3F)c2F)c(-c2ccnc(N)n2)s1 [Dabrafenib] + CS(=O)(=O)N1CCN(Cc2cc3nc(-c4cccc5[nH]ncc45)nc(N4CCOCC4)c3s2)CC1 [Pictilisib] (partner 1 µM) (assay: relative viability (nuclei count vs DMSO), 5 days (fraction); higher = more cells survive). Conditions: first compound 0.003 µM.
How it was run: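 Medians of duplicate plates are given as relative viability. That measure is the nuclei count in treated wells divided by the count in vehicle wells. Counts were taken on 4× images of lung cancer cell lines in 1536-well plates, 5 days after pin-tool dosing the day after seeding with one drug alone or a fixed anchor-drug dose plus five library-drug doses (not always all listed) in √10 steps.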

| Cell Line | relative viability |
| --- | --- |
| HCC-15 | 0.595 |
| LU99A | 0.336 |
| EKVX | 0.413 |
| Calu-6 | 0.968 |
| COR-L23 | 0.8 |
| NCI-H1437 | 0.385 |
| RERF-LC-KJ | 0.575 |
| NCI-H460 | 0.194 |
| H3255 | 0.394 |
| NCI-H1793 | 0.366 |
| SW 1573 | 0.501 |
| NCI-H838 | 0.394 |
| NCI-H3122 | 0.581 |
| NCI-H1563 | 0.591 |
| NCI-H1915 | 0.902 |
| NCI-H1975 | 0.267 |
| LK-2 | 0.552 |
| HCC-366 | 0.161 |
| NCI-H2087 | 0.38 |
| NCI-H661 | 0.283 |

Same assay, conditions: first compound 0.009487 µM

| Cell Line | relative viability |
| --- | --- |
| A-427 | 0.611 |
| NCI-H1355 | 0.493 |
| NCI-H1792 | 0.307 |
| HCC-15 | 0.851 |
| LU99A | 0.268 |
| EKVX | 0.458 |
| Calu-6 | 0.913 |
| COR-L23 | 0.888 |
| NCI-H1437 | 0.478 |
| RERF-LC-KJ | 0.592 |
| NCI-H1734 | 0.522 |
| BEN | 0.58 |
| NCI-H460 | 0.352 |
| H3255 | 0.566 |
| SK-LU-1 | 0.668 |
| NCI-H1793 | 0.313 |

| Cell Line | relative viability |
| --- | --- |
| NCI-H23 | 0.465 |
| SW 1573 | 0.474 |
| NCI-H838 | 0.563 |
| EPLC-272H | 0.212 |
| NCI-H3122 | 0.629 |
| NCI-H1563 | 0.628 |
| NCI-H1915 | 1.06 |
| NCI-H727 | 0.476 |
| NCI-H1975 | 0.308 |
| LK-2 | 0.614 |
| HCC-366 | 0.183 |
| NCI-H2087 | 0.819 |
| LCLC-97TM1 | 0.206 |
| NCI-H661 | 0.376 |
| NCI-H2405 | 0.305 |

Same assay, conditions: first compound 0.03 µM

| Cell Line | relative viability |
| --- | --- |
| A-427 | 0.769 |
| NCI-H1355 | 0.328 |
| NCI-H1792 | 0.237 |
| HCC-15 | 0.654 |
| LU99A | 0.342 |
| EKVX | 0.38 |
| Calu-6 | 0.867 |
| COR-L23 | 0.704 |
| NCI-H1437 | 0.481 |
| RERF-LC-KJ | 0.455 |
| NCI-H1734 | 0.38 |
| NCI-H460 | 0.245 |
| H3255 | 0.43 |
| SK-LU-1 | 0.385 |
| NCI-H1793 | 0.329 |
| NCI-H23 | 0.461 |
| SW 1573 | 0.454 |
| NCI-H838 | 0.421 |
| EPLC-272H | 0.288 |
| NCI-H3122 | 0.793 |
| NCI-H1563 | 0.6 |
| NCI-H1915 | 0.862 |
| NCI-H727 | 0.36 |
| NCI-H1975 | 0.27 |
| HCC-366 | 0.0973 |
| NCI-H2087 | 1.08 |
| LCLC-97TM1 | 0.213 |

Same assay, conditions: first compound 0.09487 µM

| Cell Line | relative viability |
| --- | --- |
| A-427 | 0.522 |
| NCI-H1792 | 0.311 |
| HCC-15 | 0.797 |
| LU99A | 0.299 |
| EKVX | 0.495 |
| Calu-6 | 0.715 |
| COR-L23 | 0.632 |
| NCI-H1437 | 0.46 |
| RERF-LC-KJ | 0.616 |
| NCI-H1734 | 0.424 |
| BEN | 0.52 |
| NCI-H460 | 0.653 |
| H3255 | 0.405 |
| SK-LU-1 | 0.416 |
| NCI-H1793 | 0.392 |
| NCI-H23 | 0.455 |
| SW 1573 | 0.426 |
| NCI-H838 | 0.447 |
| EPLC-272H | 0.414 |
| NCI-H3122 | 0.692 |
| NCI-H1563 | 0.633 |
| NCI-H1915 | 0.758 |
| NCI-H727 | 0.444 |
| NCI-H1975 | 0.257 |
| LK-2 | 0.587 |
| HCC-366 | 0.169 |
| NCI-H2087 | 0.728 |
| NCI-H661 | 0.34 |
| NCI-H2405 | 0.314 |

Same assay, conditions: first compound 0.3 µM

| Cell Line | relative viability |
| --- | --- |
| A-427 | 0.675 |
| NCI-H1355 | 0.362 |
| NCI-H1792 | 0.242 |
| HCC-15 | 0.725 |
| LU99A | 0.266 |
| EKVX | 0.59 |
| Calu-6 | 0.694 |
| COR-L23 | 0.647 |
| NCI-H1437 | 0.702 |
| RERF-LC-KJ | 0.748 |
| NCI-H1734 | 0.399 |
| BEN | 0.687 |
| NCI-H460 | 0.553 |
| H3255 | 0.462 |
| SK-LU-1 | 0.397 |
| NCI-H1793 | 0.323 |
| NCI-H23 | 0.503 |
| SW 1573 | 0.505 |
| NCI-H838 | 0.385 |
| EPLC-272H | 0.369 |
| NCI-H3122 | 0.719 |
| NCI-H1563 | 0.583 |
| NCI-H1915 | 0.578 |
